From PubChem BioAssay AID1918933 (Molecular Pharmacology Branch, DTP, NCI, 2023)

System: 186277-243-T-J2-PDC complex spheroid viability
Test: Anticancer human tumor 186277-243-T-J2-PDC patient-derived colon adenocarcinoma cell line growth inhibition
Conditions: for IC50: curve of first compound; for viability, T/C: stronger effect = lower value; active means viability on the fitted dose curve at most 10% of control; inactive means the rest
Procedure, shortened: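 Complex spheroids of tumor cells with HUVEC and human MSCs, exposed to iadademstat combined with other agents. Each agent tested in half-log steps from near clinical Cmax (else 10 microM top), DMSO ≤0.25%.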

[1] = second compound 0.1 µM, first compound 0.00949 µM
[2] = second compound 0.1 µM, first compound 0.03 µM
[3] = second compound 0.1 µM, first compound 0.0949 µM
[4] = second compound 0.1 µM, first compound 0.3 µM
[5] = second compound 0.316 µM, first compound 0.00949 µM
[6] = second compound 0.316 µM, first compound 0.03 µM
[7] = second compound 0.316 µM, first compound 0.0949 µM
[8] = second compound 0.316 µM, first compound 0.3 µM
[9] = second compound 1 µM, first compound 0.00949 µM
[10] = second compound 1 µM, first compound 0.03 µM
[11] = second compound 1 µM, first compound 0.0949 µM
[12] = second compound 1 µM, first compound 0.3 µM
[13] = second compound 3.16 µM, first compound 0.00949 µM
[14] = second compound 3.16 µM, first compound 0.03 µM
[15] = second compound 3.16 µM, first compound 0.0949 µM
[16] = second compound 3.16 µM, first compound 0.3 µM
[17] = second compound 10 µM, first compound 0.00949 µM
[18] = second compound 10 µM, first compound 0.03 µM
[19] = second compound 10 µM, first compound 0.0949 µM
[20] = second compound 10 µM, first compound 0.3 µM
[21] = second compound 0.1 µM, first compound 0.000316 µM
[22] = second compound 0.1 µM, first compound 0.001 µM
[23] = second compound 0.1 µM, first compound 0.00316 µM
[24] = second compound 0.1 µM, first compound 0.01 µM
[25] = second compound 0.1 µM, first compound 0.0316 µM
[26] = second compound 0.1 µM, first compound 0.1 µM
[27] = second compound 0.316 µM, first compound 0.000316 µM
[28] = second compound 0.316 µM, first compound 0.001 µM
[29] = second compound 0.316 µM, first compound 0.00316 µM
[30] = second compound 0.316 µM, first compound 0.01 µM
[31] = second compound 0.316 µM, first compound 0.0316 µM
[32] = second compound 0.316 µM, first compound 0.1 µM
[33] = second compound 1 µM, first compound 0.000316 µM
[34] = second compound 1 µM, first compound 0.001 µM
[35] = second compound 1 µM, first compound 0.00316 µM
[36] = second compound 1 µM, first compound 0.01 µM
[37] = second compound 1 µM, first compound 0.0316 µM
[38] = second compound 1 µM, first compound 0.1 µM
[39] = second compound 3.16 µM, first compound 0.000316 µM
[40] = second compound 3.16 µM, first compound 0.001 µM
[41] = second compound 3.16 µM, first compound 0.00316 µM
[42] = second compound 3.16 µM, first compound 0.01 µM
[43] = second compound 3.16 µM, first compound 0.0316 µM
[44] = second compound 3.16 µM, first compound 0.1 µM
[45] = second compound 10 µM, first compound 0.000316 µM
[46] = second compound 10 µM, first compound 0.001 µM
[47] = second compound 10 µM, first compound 0.00316 µM
[48] = second compound 10 µM, first compound 0.01 µM
[49] = second compound 10 µM, first compound 0.0316 µM
[50] = second compound 10 µM, first compound 0.1 µM
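Further: 7 day exposure to compounds.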

Nc1ccn(C2OC(CO)C(O)C2(F)F)c(=O)n1 (stereo not given) + NC1CCC(NC2CC2c2ccccc2)CC1
< 0.949 nM: IC50 (second compound 0.1 µM) | IC50 (second compound 0.316 µM) | IC50 (second compound 1 µM) | IC50 (second compound 3.16 µM) | IC50 (second compound 10 µM)
inactive: viability, T/C (second compound 0.1 µM, first compound 0.000949 µM) 25.8% | viability, T/C (second compound 0.1 µM, first compound 0.003 µM) 17.1% | viability, T/C [1] 16.5% | viability, T/C [2] 15.9% | viability, T/C [3] 15.9% | viability, T/C [4] 15.1% | viability, T/C (second compound 0.316 µM, first compound 0.000949 µM) 22.9% | viability, T/C (second compound 0.316 µM, first compound 0.003 µM) 18.7% | viability, T/C [5] 16.2% | viability, T/C [6] 15.6% | viability, T/C [7] 16.1% | viability, T/C [8] 15.6% | viability, T/C (second compound 1 µM, first compound 0.000949 µM) 26% | viability, T/C (second compound 1 µM, first compound 0.003 µM) 18.6% | viability, T/C [9] 18.1% | viability, T/C [10] 18% | viability, T/C [11] 16.8% | viability, T/C [12] 16.3% | viability, T/C (second compound 3.16 µM, first compound 0.000949 µM) 27.2% | viability, T/C (second compound 3.16 µM, first compound 0.003 µM) 20.5% | viability, T/C [13] 20.1% | viability, T/C [14] 19.6% | viability, T/C [15] 19.2% | viability, T/C [16] 15.9% | viability, T/C (second compound 10 µM, first compound 0.000949 µM) 31.3% | viability, T/C (second compound 10 µM, first compound 0.003 µM) 25.1% | viability, T/C [17] 25.3% | viability, T/C [18] 18.5% | viability, T/C [19] 23.3% | viability, T/C [20] 20.9%

Nc1ccccc1NC(=O)c1ccc(CNC(=O)OCc2cccnc2)cc1 + NC1CCC(NC2CC2c2ccccc2)CC1
active: viability, T/C (second compound 10 µM, first compound 3 µM) 8.04%
1380 nM: IC50 (second compound 3.16 µM)
inactive: viability, T/C [1] 112% | viability, T/C [2] 96.2% | viability, T/C [3] 95.3% | viability, T/C [4] 110% | viability, T/C (second compound 0.1 µM, first compound 0.949 µM) 69.6% | viability, T/C (second compound 0.1 µM, first compound 3 µM) 12.5% | viability, T/C [5] 112% | viability, T/C [6] 113% | viability, T/C [7] 109% | viability, T/C [8] 96.5% | viability, T/C (second compound 0.316 µM, first compound 0.949 µM) 68.7% | viability, T/C (second compound 0.316 µM, first compound 3 µM) 13.5% | viability, T/C [9] 112% | viability, T/C [10] 113% | viability, T/C [11] 92.8% | viability, T/C [12] 107% | viability, T/C (second compound 1 µM, first compound 0.949 µM) 74.9% | viability, T/C (second compound 1 µM, first compound 3 µM) 13.7% | viability, T/C [13] 118% | viability, T/C [14] 113% | viability, T/C [15] 106% | viability, T/C [16] 108% | viability, T/C (second compound 3.16 µM, first compound 0.949 µM) 67.6% | viability, T/C (second compound 3.16 µM, first compound 3 µM) 12.8% | viability, T/C [17] 106% | viability, T/C [18] 98.7% | viability, T/C [19] 103% | viability, T/C [20] 93.4% | viability, T/C (second compound 10 µM, first compound 0.949 µM) 71.1%
1520 nM: IC50 (second compound 1 µM)
1390 nM: IC50 (second compound 10 µM)
1400 nM: IC50 (second compound 0.316 µM)
1410 nM: IC50 (second compound 0.1 µM)

CC[C@@]1(O)C(=O)OCc2c1cc1n(c2=O)Cc2cc3c(CN(C)C)c(O)ccc3nc2-1 + NC1CCC(NC2CC2c2ccccc2)CC1
> 100 nM: IC50 (second compound 0.1 µM) | IC50 (second compound 0.316 µM) | IC50 (second compound 1 µM) | IC50 (second compound 3.16 µM) | IC50 (second compound 10 µM)
inactive: viability, T/C [21] 106% | viability, T/C [22] 99.1% | viability, T/C [23] 137% | viability, T/C [24] 131% | viability, T/C [25] 102% | viability, T/C [26] 51.8% | viability, T/C [27] 111% | viability, T/C [28] 108% | viability, T/C [29] 131% | viability, T/C [30] 132% | viability, T/C [31] 98.6% | viability, T/C [32] 52.8% | viability, T/C [33] 107% | viability, T/C [34] 114% | viability, T/C [35] 137% | viability, T/C [36] 131% | viability, T/C [37] 103% | viability, T/C [38] 56.9% | viability, T/C [39] 107% | viability, T/C [40] 124% | viability, T/C [41] 147% | viability, T/C [42] 134% | viability, T/C [43] 104% | viability, T/C [44] 61.6% | viability, T/C [45] 104% | viability, T/C [46] 116% | viability, T/C [47] 140% | viability, T/C [48] 131% | viability, T/C [49] 110% | viability, T/C [50] 63.2%

CC(C)CC(NC(=O)CNC(=O)c1cc(Cl)ccc1Cl)B1OC(=O)CC(CC(=O)O)(C(=O)O)O1 (stereo not given) + NC1CCC(NC2CC2c2ccccc2)CC1
active: viability, T/C [26] 1.64% | viability, T/C [32] 1.44% | viability, T/C [38] 1.22% | viability, T/C [44] 1.04% | viability, T/C [50] 1.05%
19.6 nM: IC50 (second compound 3.16 µM)
inactive: viability, T/C [21] 102% | viability, T/C [22] 119% | viability, T/C [23] 115% | viability, T/C [24] 98.8% | viability, T/C [25] 20.6% | viability, T/C [27] 118% | viability, T/C [28] 114% | viability, T/C [29] 117% | viability, T/C [30] 96.6% | viability, T/C [31] 20.7% | viability, T/C [33] 113% | viability, T/C [34] 114% | viability, T/C [35] 111% | viability, T/C [36] 87.3% | viability, T/C [37] 18.3% | viability, T/C [39] 112% | viability, T/C [40] 107% | viability, T/C [41] 110% | viability, T/C [42] 96.5% | viability, T/C [43] 17.1% | viability, T/C [45] 105% | viability, T/C [46] 111% | viability, T/C [47] 111% | viability, T/C [48] 98.5% | viability, T/C [49] 15.1%
20.5 nM: IC50 (second compound 0.1 µM)
20.3 nM: IC50 (second compound 0.316 µM)
19.5 nM: IC50 (second compound 10 µM)
18.6 nM: IC50 (second compound 1 µM)

Cn1ncnc1C1c2n[nH]c(=O)c3cc(F)cc(c23)NC1c1ccc(F)cc1 (stereo not given) + NC1CC1c1ccc(-c2cccc(O)c2)cc1
inactive: viability, T/C [21] 110% | viability, T/C [22] 109% | viability, T/C [23] 112% | viability, T/C [24] 110% | viability, T/C [25] 106% | viability, T/C [26] 115% | viability, T/C [27] 113% | viability, T/C [28] 110% | viability, T/C [29] 93.8% | viability, T/C [30] 97.7% | viability, T/C [31] 100% | viability, T/C [32] 106% | viability, T/C [33] 113% | viability, T/C [34] 114% | viability, T/C [35] 120% | viability, T/C [36] 104% | viability, T/C [37] 108% | viability, T/C [38] 110% | viability, T/C [39] 110% | viability, T/C [40] 115% | viability, T/C [41] 112% | viability, T/C [42] 107% | viability, T/C [43] 113% | viability, T/C [44] 110% | viability, T/C [45] 110% | viability, T/C [46] 106% | viability, T/C [47] 127% | viability, T/C [48] 109% | viability, T/C [49] 104% | viability, T/C [50] 100%
> 100 nM: IC50 (second compound 0.1 µM) | IC50 (second compound 0.316 µM) | IC50 (second compound 1 µM) | IC50 (second compound 3.16 µM) | IC50 (second compound 10 µM)
